Experimental data: ChEMBL document CHEMBL1201862, “PubChem BioAssay data set” (2004)
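Five compound concentrations were applied to cells in 96-well plates for 48 hours; endpoints were derived by simple linear interpolation of the resulting dose-response curve. Abbreviation: GI50, concentration required for 50% inhibition of growth.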 The source made the active and inactive calls. Cut-off read from the data, not from the text of the source: active = GI50 up to about 1.1 µM and inactive = higher.

Experiments:
Assay in all cases: NCI tumour cell line growth inhibition, 48 h
[1] = tested on: A498
[2] = tested on: A549
[3] = tested on: DMS-114
[4] = tested on: EKVX
[5] = tested on: HCC 2998
[6] = tested on: HL-60
[7] = tested on: IGROV-1
[8] = tested on: K562
[9] = tested on: KM-20L2
[10] = tested on: M14
[11] = tested on: Malme-3M
[12] = tested on: NCI-H226
[13] = tested on: OVCAR-3
[14] = tested on: OVCAR-8
[15] = tested on: SF-268
[16] = tested on: SK-OV-3
[17] = tested on: SNB-19
[18] = tested on: Hs-578T
[19] = tested on: MDA-N
[20] = tested on: T47D

SMILES: CN1CN(C(=O)N2CN(C)C(=O)N(C)C2)CN(C)C1=O
- GI50 [1]: > 100 µM (inactive)
- GI50 [2]: > 100 µM (inactive)
- GI50 [3]: > 100 µM (inactive)
- GI50 [4]: > 100 µM (inactive)
- GI50 [5]: > 100 µM (inactive)
- GI50 [6]: > 100 µM (inactive)
- GI50 [7]: > 100 µM (inactive)
- GI50 [8]: > 100 µM (inactive)
- GI50 [9]: > 100 µM (inactive)
- GI50 [10]: > 100 µM (inactive)
- GI50 [11]: > 100 µM (inactive)
- GI50 [12]: > 100 µM (inactive)
- GI50 [13]: > 100 µM (inactive)
- GI50 [14]: > 100 µM (inactive)
- GI50 [15]: > 100 µM (inactive)
- GI50 [16]: > 100 µM (inactive)
- GI50 [17]: > 100 µM (inactive)

SMILES: N#CCC(=O)N/N=C1/C(=O)N(c2cc(Cl)ccc2Cl)C(=O)C(=O)C1c1nc2ccccc2s1 (centres undefined)
- GI50 [1]: > 100 µM (inactive)
- GI50 [2]: > 100 µM (inactive)
- GI50 [3]: > 100 µM (inactive)
- GI50 [4]: 43.4 µM (inactive)
- GI50 [5]: > 100 µM (inactive)
- GI50 [6]: 43.9 µM (inactive)
- GI50 [7]: > 100 µM (inactive)
- GI50 [8]: > 100 µM (inactive)
- GI50 [9]: > 100 µM (inactive)
- GI50 [10]: > 100 µM (inactive)
- GI50 [11]: > 100 µM (inactive)
- GI50 [12]: > 100 µM (inactive)
- GI50 [13]: 54.6 µM (inactive)
- GI50 [14]: 81.5 µM (inactive)
- GI50 [15]: 88.3 µM (inactive)
- GI50 [16]: > 100 µM (inactive)
- GI50 [17]: 64.3 µM (inactive)

SMILES: C/C(CCN(C)C)=N\OC(=O)c1ccccc1
- GI50 [1]: > 100 µM (inactive)
- GI50 [2]: > 100 µM (inactive)
- GI50 [3]: > 100 µM (inactive)
- GI50 [4]: > 100 µM (inactive)
- GI50 [5]: > 100 µM (inactive)
- GI50 [6]: > 100 µM (inactive)
- GI50 [7]: > 100 µM (inactive)
- GI50 [8]: > 100 µM (inactive)
- GI50 [9]: > 100 µM (inactive)
- GI50 [10]: > 100 µM (inactive)
- GI50 [11]: > 100 µM (inactive)
- GI50 [12]: > 100 µM (inactive)
- GI50 [13]: > 100 µM (inactive)
- GI50 [14]: > 100 µM (inactive)
- GI50 [15]: > 100 µM (inactive)
- GI50 [16]: > 100 µM (inactive)
- GI50 [17]: > 100 µM (inactive)

SMILES: COc1cc2c(cc1OC)[C@@H](C(O)c1ccccc1)NCC2 (some centres undefined)
- GI50 [1]: > 100 µM (inactive)
- GI50 [2]: > 100 µM (inactive)
- GI50 [3]: > 100 µM (inactive)
- GI50 [4]: > 100 µM (inactive)
- GI50 [5]: > 100 µM (inactive)
- GI50 [6]: > 100 µM (inactive)
- GI50 [7]: > 100 µM (inactive)
- GI50 [8]: > 100 µM (inactive)
- GI50 [9]: > 100 µM (inactive)
- GI50 [10]: > 100 µM (inactive)
- GI50 [11]: > 100 µM (inactive)
- GI50 [12]: > 100 µM (inactive)
- GI50 [13]: > 100 µM (inactive)
- GI50 [14]: > 100 µM (inactive)
- GI50 [15]: > 100 µM (inactive)
- GI50 [16]: > 100 µM (inactive)
- GI50 [17]: > 100 µM (inactive)

SMILES: COc1cc2c3c(c1OC)Oc1ccc(cc1)CC1c4c(cc(OC)c(OC)c4Oc4ccc(cc4)CC3N(C)CC2)CCN1C (centres undefined)
- GI50 [1]: 0.0169 µM (active)
- GI50 [2]: 26.2 µM (inactive)
- GI50 [3]: 19.8 µM (inactive)
- GI50 [4]: 67.6 µM (inactive)
- GI50 [5]: 14 µM (inactive)
- GI50 [6]: 15.3 µM (inactive)
- GI50 [7]: 13.4 µM (inactive)
- GI50 [8]: 16.9 µM (inactive)
- GI50 [9]: 19.8 µM (inactive)
- GI50 [10]: 18.8 µM (inactive)
- GI50 [11]: 20.3 µM (inactive)
- GI50 [12]: 15.6 µM (inactive)
- GI50 [13]: 18.6 µM (inactive)
- GI50 [14]: 20.2 µM (inactive)
- GI50 [15]: 27 µM (inactive)
- GI50 [16]: 28.2 µM (inactive)
- GI50 [17]: 33 µM (inactive)

SMILES: CCOC(=O)C1=C(Nc2ccc(Cl)c(Cl)c2)OC/C1=N\NC(=O)Cc1ccccc1
- GI50 [1]: > 100 µM (inactive)
- GI50 [2]: > 100 µM (inactive)
- GI50 [3]: > 100 µM (inactive)
- GI50 [4]: > 100 µM (inactive)
- GI50 [5]: > 100 µM (inactive)
- GI50 [6]: > 100 µM (inactive)
- GI50 [7]: > 100 µM (inactive)
- GI50 [8]: 89.1 µM (inactive)
- GI50 [9]: > 100 µM (inactive)
- GI50 [10]: > 100 µM (inactive)
- GI50 [11]: > 100 µM (inactive)
- GI50 [12]: > 100 µM (inactive)
- GI50 [13]: > 100 µM (inactive)
- GI50 [14]: > 100 µM (inactive)
- GI50 [15]: > 100 µM (inactive)
- GI50 [16]: > 100 µM (inactive)
- GI50 [17]: > 100 µM (inactive)

SMILES: CCCCCOc1ccc(/C=N\c2ccc(-c3ccc(/N=C\c4ccc(OCCCCC)cc4)c(OC)c3)cc2OC)cc1
- GI50 [1]: > 100 µM (inactive)
- GI50 [2]: > 100 µM (inactive)
- GI50 [3]: > 100 µM (inactive)
- GI50 [4]: > 100 µM (inactive)
- GI50 [5]: > 100 µM (inactive)
- GI50 [6]: > 100 µM (inactive)
- GI50 [7]: > 100 µM (inactive)
- GI50 [8]: > 31.6 µM (inactive)
- GI50 [9]: > 100 µM (inactive)
- GI50 [11]: > 100 µM (inactive)
- GI50 [12]: > 100 µM (inactive)
- GI50 [13]: > 66.2 µM (inactive)
- GI50 [14]: > 100 µM (inactive)
- GI50 [15]: > 100 µM (inactive)
- GI50 [16]: > 100 µM (inactive)
- GI50 [17]: > 100 µM (inactive)

SMILES: CC[C@@]1(O)C[C@H](OC2CC(N(C)C)C(OC3CC(O)C(OC4CC(O)C(O)C(C)O4)C(C)O3)C(C)O2)c2c(cc3c(c2O)C(=O)c2c(O)ccc(O)c2C3=O)[C@H]1C(=O)OC (some centres undefined)
- GI50 [1]: 0.0146 µM (active)
- GI50 [2]: 0.0105 µM (active)
- GI50 [3]: 0.0853 µM (active)
- GI50 [4]: 0.0413 µM (active)
- GI50 [5]: 0.1 µM (active)
- GI50 [6]: 0.0448 µM (active)
- GI50 [7]: < 0.023 µM (active)
- GI50 [8]: 0.0109 µM (active)
- GI50 [9]: 0.108 µM (active)
- GI50 [11]: 0.0478 µM (active)
- GI50 [12]: 0.0427 µM (active)
- GI50 [13]: 0.0321 µM (active)
- GI50 [14]: 0.00474 µM (active)
- GI50 [15]: 0.0263 µM (active)
- GI50 [16]: 0.0811 µM (active)
- GI50 [17]: 0.0346 µM (active)

SMILES: COc1ccc(C(=O)Cc2cc(OC)ccc2OC)cc1
- GI50 [1]: 39.2 µM (inactive)
- GI50 [2]: > 100 µM (inactive)
- GI50 [3]: 66.8 µM (inactive)
- GI50 [4]: > 100 µM (inactive)
- GI50 [5]: > 100 µM (inactive)
- GI50 [6]: > 100 µM (inactive)
- GI50 [7]: > 100 µM (inactive)
- GI50 [8]: > 100 µM (inactive)
- GI50 [9]: > 100 µM (inactive)
- GI50 [10]: > 100 µM (inactive)
- GI50 [11]: > 100 µM (inactive)
- GI50 [12]: > 100 µM (inactive)
- GI50 [13]: > 100 µM (inactive)
- GI50 [14]: > 100 µM (inactive)
- GI50 [15]: 61.4 µM (inactive)
- GI50 [16]: > 100 µM (inactive)
- GI50 [17]: > 100 µM (inactive)

SMILES: Cc1ccc(C2CC(c3ccc([N+](=O)[O-])cc3)=Nc3ccccc3S2)cc1 (centres undefined)
- GI50 [1]: 16.3 µM (inactive)
- GI50 [2]: 22.3 µM (inactive)
- GI50 [3]: 16.5 µM (inactive)
- GI50 [4]: 42.6 µM (inactive)
- GI50 [5]: 20.3 µM (inactive)
- GI50 [6]: 19.8 µM (inactive)
- GI50 [7]: 23.4 µM (inactive)
- GI50 [8]: 13.4 µM (inactive)
- GI50 [9]: 34.3 µM (inactive)
- GI50 [10]: 28.3 µM (inactive)
- GI50 [11]: 50.8 µM (inactive)
- GI50 [12]: 44.6 µM (inactive)
- GI50 [13]: 24.7 µM (inactive)
- GI50 [14]: 22.5 µM (inactive)
- GI50 [15]: 24.4 µM (inactive)
- GI50 [16]: 89.9 µM (inactive)
- GI50 [17]: 23 µM (inactive)

SMILES: COCC(=O)[C@]1(O)Cc2c(O)c3c(c(O)c2[C@@H](OC2CC(N)C(O)C(C)O2)C1)C(=O)c1c(OC)cccc1C3=O (some centres undefined)
- GI50 [1]: 0.104 µM (active)
- GI50 [2]: 0.219 µM (active)
- GI50 [3]: 0.0718 µM (active)
- GI50 [4]: 0.455 µM (active)
- GI50 [5]: 0.14 µM (active)
- GI50 [6]: 0.0188 µM (active)
- GI50 [18]: < 0.01 µM (active)
- GI50 [7]: 0.136 µM (active)
- GI50 [8]: 0.0124 µM (active)
- GI50 [9]: 0.111 µM (active)
- GI50 [10]: 0.0927 µM (active)
- GI50 [19]: 0.0767 µM (active)
- GI50 [11]: 0.105 µM (active)
- GI50 [12]: 0.0401 µM (active)
- GI50 [13]: 0.115 µM (active)
- GI50 [14]: < 0.0172 µM (active)
- GI50 [15]: 0.0351 µM (active)
- GI50 [16]: 0.254 µM (active)
- GI50 [17]: 0.0889 µM (active)
- GI50 [20]: 0.106 µM (active)

SMILES: CC(=O)Nc1ccc(/C=C/c2ccc(NC(=O)Nc3ccc(/C=C/c4ccc(NC(C)=O)cc4S(=O)(=O)O)c(S(=O)(=O)O)c3)cc2S(=O)(=O)O)c(S(=O)(=O)O)c1
- GI50 [1]: > 100 µM (inactive)
- GI50 [2]: > 100 µM (inactive)
- GI50 [3]: 60.5 µM (inactive)
- GI50 [4]: > 100 µM (inactive)
- GI50 [5]: 98.6 µM (inactive)
- GI50 [6]: 60.1 µM (inactive)
- GI50 [7]: > 100 µM (inactive)
- GI50 [8]: > 100 µM (inactive)
- GI50 [9]: 77.8 µM (inactive)
- GI50 [11]: > 100 µM (inactive)
- GI50 [12]: 39.8 µM (inactive)
- GI50 [13]: > 100 µM (inactive)
- GI50 [14]: > 100 µM (inactive)
- GI50 [15]: > 100 µM (inactive)
- GI50 [16]: > 100 µM (inactive)
- GI50 [17]: > 100 µM (inactive)
